Measured values taken from patent publication US11639350B2, “Heteroaryldihydropyrimidine derivatives and methods of treating hepatitis B infections” (Janssen Pharmaceutica NV, priority 2018, dated 2023).

Assays:
[1] = test system: HBV; experiment: HBV inhibitory activity: HBV DNA in the culture medium of HepG2.2.15 cells by q-PCR; assay type: cell-based; details: Hepatitis B virus, HepG2.2.15, 144 h, HepG2.2.15 cells, 6 days of compound treatment, HBV DNA in culture medium by q-PCR, highest concentration 10 μM; read-out: EC50
Summary of the method: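 HepG2.2.15 cells in 2% FBS medium, 40,000 per well, treated 6 days with compound (medium refreshed once), eight 3-fold dilutions from 10 μM top. HBV DNA extracted from culture medium and quantified by q-PCR; EC50 averaged over repeats. Cytotoxicity run in parallel at 5,000 cells per well, top 100 μM, giving CC50.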

[2] = Cytotoxicity determination in HepG2.2.15 cells (CCK-8); assay type: cell-based; details: human, 6 days of compound treatment, CCK-8, highest concentration 100 μM
Summary of the method: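 HepG2.2.15 cells seeded at 5,000 cells/well in 2% FBS medium, incubated overnight at 37° C., then treated 6 days with compounds (8 points, 3-fold dilutions, top 100 μM), medium refreshed once midway. CCK-8 added for 2.5 h; A450 read against 630 nm reference; CC50 calculated, averaged over repeats.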

## COC(=O)C1=C([C@H]2CC[C@H](N(C)S(C)(=O)=O)CC2)NC(c2nccs2)=NC1c1ccc(F)cc1Cl (single isomer, unassigned) [Compound 388B, (trans)-Methyl 4-(2-chloro-4-fluorophenyl)-6-(4-(N-methylmethylsulfonamido)cyclohexyl)-2-(thiazol-2-yl)-1,4-dihydropyrimidine-5-carboxylate]
[1]
  EC50: 28 nM
[2]
  CC50 at 6 days: 27800 nM

## COC(=O)C1=C([C@H]2CC[C@H](NS(C)(=O)=O)CC2)NC(c2ncc(F)cc2F)=NC1c1ccc(F)cc1Cl (single isomer, unassigned) [Compound 396B, (trans)-Methyl 4-(2-chloro-4-fluorophenyl)-2-(3,5-difluoropyridin-2-yl)-6-(4-(methylsulfonamido)cyclohexyl)-1,4-dihydropyrimidine-5-carboxylate]
[1]
  EC50: 20 nM
[2]
  CC50 at 6 days: 22500 nM

## COC(=O)C1=C(C2CCN(S(C)(=N)=O)CC2)NC(c2nccs2)=NC1c1ccc(F)cc1Cl (single isomer, unassigned) [Compound 401Y, Methyl 4-(2-chloro-4-fluorophenyl)-6-(1-(S-methylsulfonimidoyl)piperidin-4-yl)-2-(thiazol-2-yl)-1,4-dihydropyrimidine-5-carboxylate]
[1]
  EC50: 24 nM
[2]
  CC50 at 6 days: 60000 nM

## COC(=O)C1=C([C@H]2CC[C@H](N(CCCO)S(C)(=O)=O)CC2)NC(c2nccs2)=NC1c1ccc(F)cc1Cl (single isomer, unassigned) [Compound 431B, (trans)-Methyl 4-(2-chloro-4-fluorophenyl)-6-(4-(N-(3-hydroxypropyl)methylsulfonamido)cyclohexyl)-2-(thiazol-2-yl)-1,4-dihydropyrimidine-5-carboxylate]
[1]
  EC50: 52 nM
[2]
  CC50 at 6 days: 28100 nM

## COC(=O)C1=C([C@H]2CC[C@H](N(CCO)C(C)=O)CC2)NC(c2nccs2)=NC1c1ccc(F)c(F)c1Cl (single isomer, unassigned) [Compound 433B, (trans)-Methyl 4-(2-chloro-3,4-difluorophenyl)-6-(4-(N-(2-hydroxyethyl)acetamido)cyclohexyl)-2-(thiazol-2-yl)-1,4-dihydropyrimidine-5-carboxylate]
[1]
  EC50: 59 nM
[2]
  CC50 at 6 days: 17400 nM

## COC(=O)C1=C([C@H]2CC[C@H](N(CCO)CC(F)(F)F)CC2)NC(c2nccs2)=NC1c1ccc(F)c(F)c1Cl (single isomer, unassigned) [Compound 434B, (trans)-Methyl 4-(2-chloro-3,4-difluorophenyl)-6-(4-((2-hydroxyethyl)(2,2,2-trifluoroethyl)amino)cyclohexyl)-2-(thiazol-2-yl)-1,4-dihydropyrimidine-5-carboxylate]
[1]
  EC50: 128 nM
[2]
  CC50 at 6 days: 6800 nM

## CCOC(=O)C1=C([C@H]2C[C@@H](NS(C)(=O)=O)C2(C)C)NC(c2nccs2)=NC1c1ccc(F)cc1Cl (single isomer, unassigned) [Compound 437A, (cis)-Ethyl 4-(2-chloro-4-fluorophenyl)-6-(2,2-dimethyl-3-(methylsulfonamido)cyclobutyl)-2-(thiazol-2-yl)-1,4-dihydropyrimidine-5-carboxylate]
[1]
  EC50: 600 nM
[2]
  CC50 at 6 days: 10400 nM

## COC(=O)C1=C([C@H]2CC[C@H](N(CC#N)S(C)(=O)=O)CC2)NC(c2nccs2)=NC1c1ccc(F)cc1Cl (single isomer, unassigned) [Compound 448A, (trans)-Methyl 4-(2-chloro-4-fluorophenyl)-6-(4-(N-(cyanomethyl)methylsulfonamido)cyclohexyl)-2-(thiazol-2-yl)-1,4-dihydropyrimidine-5-carboxylate]
[1]
  EC50: 8 nM
[2]
  CC50 at 6 days: > 100000 nM

## COC(=O)C1=C([C@H]2CCCC(C(=O)O)C2)NC(c2nccs2)=NC1c1cccc(F)c1Cl (stereo in doubt) [Compound 25, cis-3-(6-(2-Chloro-3-fluorophenyl)-5-(methoxycarbonyl)-2-(thiazol-2-yl)-3,6-dihydropyrimidin-4-yl)cyclohexanecarboxylic Acid]
[1]
  EC50: 165 nM
[2]
  CC50 at 6 days: 35300 nM

## CCOC(=O)C1=C(C2CCN(S(=O)(=O)C3CC(C(=O)O)C3)CC2)NC(c2nccs2)=NC1c1ccc(F)c(F)c1Br (stereo in doubt) [Compound 199B, (trans)-3-((4-(6-(2-bromo-3,4-difluorophenyl)-5-(ethoxycarbonyl)-2-(thiazol-2-yl)-3,6-dihydropyrimidin-4-yl)piperidin-1-yl)sulfonyl)cyclobutanecarboxylic Acid]
[1]
  EC50: < 4.6 nM
[2]
  CC50 at 6 days: 14200 nM

## COC(=O)C1=C([C@H]2CC[C@H](S(=O)(=O)N3CC[C@@H](C(=O)O)C3)CC2)NC(c2nccs2)=NC1c1ccc(F)c(F)c1Cl (stereo in doubt) [Compound 293C, (trans)-1-((4-((R)-6-(2-Chloro-3,4-difluorophenyl)-5-(methoxycarbonyl)-2-(thiazol-2-yl)-3,6-dihydropyrimidin-4-yl)cyclohexyl)-sulfonyl)pyrrolidine-3-carboxylic Acid]
[1]
  EC50: 150 nM
[2]
  CC50 at 6 days: 85700 nM

## COC(=O)C1=C(C2CCN(C(C)=O)CC2)NC(c2nccs2)=NC1c1ccc(F)cc1Cl (stereo not drawn) [Compound 2, Methyl 6-(1-acetylpiperidin-4-yl)-4-(2-chloro-4-fluorophenyl)-2-(thiazol-2-yl)-1,4-dihydropyrimidine-5-carboxylate]
[1]
  EC50: 232 nM
[2]
  CC50 at 6 days: 98400 nM

## COC(=O)C1=C(C2CCNC(=O)C2)NC(c2nccs2)=NC1c1ccc(F)cc1Cl (stereo not drawn) [Compound 3, Methyl 4-(2-chloro-4-fluorophenyl)-6-(2-oxopiperidin-4-yl)-2-(thiazol-2-yl)-1,4-dihydro-pyrimidine-5-carboxylate]
[1]
  EC50: 38 nM
[2]
  CC50 at 6 days: 32800 nM

## COC(=O)C1=C(C2CCN(S(=O)(=O)C(C)(C)C(=O)O)CC2)NC(c2nccs2)=NC1c1ccc(F)cc1Cl (stereo not drawn) [Compound 7, 2-((4-(6-(2-Chloro-4-fluorophenyl)-5-(methoxycarbonyl)-2-(thiazol-2-yl)-3,6-dihydro-pyrimidin-4-yl)piperidin-1-yl)sulfonyl)-2-methylpropanoic Acid]
[1]
  EC50: 168 nM
[2]
  CC50 at 6 days: > 100000 nM

## COC(=O)C1=C([C@H]2CC[C@H](C(=O)O)CC2)NC(c2nccs2)=NC1c1cccc(F)c1Cl (stereo partly drawn) [Compound 17, trans-4-(6-(2-Chloro-3-fluorophenyl)-5-(methoxycarbonyl)-2-(thiazol-2-yl)-3,6-dihydropyrimidin-4-yl)cyclohexanecarboxylic Acid]
[1]
  EC50: 300 nM
[2]
  CC50 at 6 days: 93800 nM

## COC(=O)C1=C(C2(F)CCN(S(C)(=O)=O)CC2)NC(c2nccs2)=NC1c1cccc(F)c1Cl (stereo not drawn) [Compound 36, Methyl 4-(2-chloro-3-fluorophenyl)-6-(4-fluoro-1-(methylsulfonyl)-piperidin-4-yl)-2-(thiazol-2-yl)-1,4-dihydropyrimidine-5-carboxylate]
[1]
  EC50: 153 nM
[2]
  CC50 at 6 days: 20700 nM

## COC(=O)C1=C(C2CCOCC2)NC(c2nccs2)=NC1c1ccc(F)cc1Cl (stereo not drawn) [Compound 51, Methyl 4-(2-chloro-4-fluorophenyl)-6-(tetrahydro-2H-pyran-4-yl)-2-(thiazol-2-yl)-1,4-dihydropyrimidine-5-carboxylate]
[1]
  EC50: 112 nM
[2]
  CC50 at 6 days: 9900 nM

## COC(=O)C1=C(C2CCN(C(=O)C(C)(C)C)C2)NC(c2nccs2)=NC1c1ccc(F)cc1Cl (stereo not drawn) [Compound 68, Methyl 4-(2-chloro-4-fluorophenyl)-6-(1-pivaloylpyrrolidin-3-yl)-2-(thiazol-2-yl)-1,4-dihydropyrimidine-5-carboxylate]
[1]
  EC50: 581 nM
[2]
  CC50 at 6 days: 72900 nM

## COC(=O)C1=C(C2CCC(C(=O)O)C2)NC(c2nccs2)=NC1c1cccc(F)c1Cl (stereo not drawn) [Compound 77, 3-(6-(2-Chloro-3-fluorophenyl)-5-(methoxycarbonyl)-2-(thiazol-2-yl)-3,6-dihydropyrimidin-4-yl)cyclopentanecarboxylic Acid]
[1]
  EC50: 71 nM
[2]
  CC50 at 6 days: 34200 nM

## COC(=O)C1=C(C2CN(S(=O)(=O)C3CCC3)C2)NC(c2nccs2)=NC1c1ccc(F)cc1Cl (stereo not drawn) [Compound 80, Methyl 4-(2-chloro-4-fluorophenyl)-6-(1-(cyclobutylsulfonyl)-azetidin-3-yl)-2-(thiazol-2-yl)-1,4-dihydropyrimidine-5-carboxylate]
[1]
  EC50: 107 nM
[2]
  CC50 at 6 days: 6300 nM

## CCNS(=O)(=O)N1CC(C2=C(C(=O)OC)C(c3ccc(F)cc3Cl)N=C(c3nccs3)N2)C1 (stereo not drawn) [Compound 81, 4-(2-Chloro-4-fluoro-phenyl)-6-(1-ethylsulfamoyl-azetidin-3-yl)-2-thiazol-2-yl-1,4-dihydro-pyrimidine-5-carboxylic Acid Methyl Ester]
[1]
  EC50: 119 nM
[2]
  CC50 at 6 days: 10500 nM

## COC(=O)C1=C(C2CN(S(=O)(=O)C3CCCCC3)C2)NC(c2nccs2)=NC1c1ccc(F)cc1Cl (stereo not drawn) [Compound 82, Methyl 4-(2-chloro-4-fluorophenyl)-6-(1-(cyclohexylsulfonyl)-azetidin-3-yl)-2-(thiazol-2-yl)-1,4-dihydropyrimidine-5-carboxylate]
[1]
  EC50: 197 nM
[2]
  CC50 at 6 days: 6900 nM

## COC(=O)C1=C(C2CC(C(=O)O)C2)NC(c2nccs2)=NC1c1ccc(F)cc1Cl (stereo not drawn) [Compound 86, 6-(3-Carboxy-cyclobutyl)-4-(2-chloro-4-fluoro-phenyl)-2-thiazol-2-yl-1,4-dihydro-pyrimidine-5-carboxylic acid methyl ester]
[1]
  EC50: 110 nM
[2]
  CC50 at 6 days: 21600 nM

## CCOC(=O)C1=C(C2CCN(S(C)(=O)=O)CC2)NC(c2nccs2)=NC1c1cccc(F)c1Cl (stereo not drawn) [Compound 96B, Ethyl 4-(2-chloro-3-fluorophenyl)-6-(1-(methylsulfonyl)piperidin-4-yl)-2-(thiazol-2-yl)-1,4-dihydropyrimidine-5-carboxylate]
[1]
  EC50: 130 nM
[2]
  CC50 at 6 days: 21200 nM
